Assays:
[1] = target: T1, ORP1 (Homo sapiens, UniProt Q9BXW6); test: Fluorescence polarisation (FP) competition with NBD-cholesterol, ORP1; type: binding; details: for inhibition at 10 µM: single dose; for IC50: mean of three experiments run in technical duplicates
T1 construct: ORP1(534-950); host or cells: E. coli BL21(DE3)
T1 sequence (Q9BXW6 534-950): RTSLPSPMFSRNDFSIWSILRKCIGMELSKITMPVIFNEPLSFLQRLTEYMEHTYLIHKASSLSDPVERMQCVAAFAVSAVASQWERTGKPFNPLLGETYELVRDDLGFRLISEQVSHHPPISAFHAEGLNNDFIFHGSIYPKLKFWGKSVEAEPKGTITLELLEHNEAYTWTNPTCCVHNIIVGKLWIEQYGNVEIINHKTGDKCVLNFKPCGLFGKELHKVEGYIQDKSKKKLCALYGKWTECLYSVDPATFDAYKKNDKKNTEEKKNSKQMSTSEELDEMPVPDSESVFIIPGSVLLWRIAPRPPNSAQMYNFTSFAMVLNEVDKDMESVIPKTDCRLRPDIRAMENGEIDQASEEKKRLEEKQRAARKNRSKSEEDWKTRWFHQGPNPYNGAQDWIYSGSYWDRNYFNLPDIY
Text: (§1) Protein expression constructs
(§2) Human ASTER domains of Aster-A(359-547), -B(364-552) and -C(318-504) were subcloned into a pGEX-6p-2rbs vector, thus introducing the cloning artifact ‘GPLGS’.3 The pGEX-6P-1-GST-OSBP(377- […]
(§3) a gift from James H. Hurley (University of California).4 The pHIS_2His6_Thrombin_STARD4(2-205;C75S) plasmid was a gift from Young Jun Im (Chonnam National University).5 STARD5A was a gift from Nicola Burgess-Brown (Addgene plasmid #42392; http://n2t.net/addgene:42392; […]
(§4) Protein expression and purification […]
(§5) vectors including an N-terminal PreScission-cleavable glutathione S-transferase (GST)-tag were expressed in Escherichia coli (E. coli) OverExpress C41 in Terrific Broth (TB) medium for 16 h at 18 °C after the induction with 0.1 mM isopropyl β-D-1-thiogalactopyranoside (IPTG). Cells were harvested at 3500 × g for 15 minutes and lysed by sonication in buffer containing 50 mM HEPES pH 7.5, 300 mM NaCl, 10 %v/v glycerol, 5 mM dithiothreitol (DTT), 0.1 %v/v Triton X-100 and protease inhibitor mix HP plus (Serva). The lysate was purified by affinity chromatography on a GSTrap FF column (Cytiva) using an ÄKTA Start (Cytiva) in buffer containing 50 mM HEPES pH 7.5, 300 mM NaCl, 10 %v/v glycerol, 5 mM DTT and 0.01 %v/v Triton X-100. The GST-tag was cleaved overnight on the column at 4 °C. The Aster sterol binding domains were further purified by size-exclusion chromatography (SEC) on a HiLoad 16/600 Superdex 75 pg (Cytiva) in buffer containing 20 mM HEPES pH 7.5, 300 mM NaCl, 10 %v/v […]
(§6) STARD5(6-213) harboring an N-terminal His6-Tag were expressed in E. coli BL21(DE3) in Luria-Bertani Broth (LB) medium for approximately 16 h at 18 °C after induction with 0.15 mM IPTG. Cells were harvested at 3500 × g for 15 minutes and lysed by sonication in buffer containing 50 mM HEPES pH 7.5, 150 mM NaCl, 5 %v/v glycerol, 5 mM DTT, 0.1 %v/v Triton X -100 and ethylenediaminetetraacetic acid (EDTA)-free protease inhibitor cocktail (Sigma-Aldrich). The cleared lysate was purified by affinity chromatography on a Ni-NTA Superflow Cartridge (Qiagen) using an ÄKTA Start (Cytiva) in buffer containing 50 mM HEPES pH 7.5, 150 mM NaCl, 5 %v/v glycerol, 5 mM DTT. START domains were eluted by using elution buffer containing 50 mM HEPES pH 7.5, 150 mM NaCl, 5 %v/v glycerol, 5 mM DTT and 500 mM imidazole. Proteins were further purified by SEC on a HiLoad 16/600 Superdex 75 pg (Cytiva) in buffer containing 20 mM HEPES pH 7.5, 150 mM NaCl, 5 %v/v glycerol and 2 mM DTT.
(§7) The ORP domain of human OSBP(377-807) in the pGEX-6p-1 vector with an N-terminal PreScission-cleavable GST-tag was expressed in E. coli OverExpress C41 in LB medium for 16 h at 18 °C after induction with 0.1 mM IPTG. Cells were harvested at 3500 × g for 15 minutes and lysed by sonication in buffer containing 20 mM HEPES pH 7.5, 300 mM NaCl, 10 %v/v glycerol, 5 mM DTT, 0.1 %v/v Triton X-100 and EDTA-free protease inhibitor cocktail (Sigma-Aldrich). The cleared lysate was purified by affinity chromatography on a GSTrap HF column (Cytiva) using an ÄKTA Start (Cytiva) in buffer containing 20 mM HEPES pH 7.5, 300 mM NaCl, 10 %v/v glycerol, 5 mM DTT. OSBP(377 -807) was eluted by using elution buffer containing 20 mM HEPES pH 7.5, 300 mM NaCl, 10 %v/v glycerol, 5 mM DTT and 10 mM reduced glutathione. Proteins were further purified by SEC on a HiLoad 16/600 Superdex 75 pg (Cytiva) using an ÄKTA Explorer (Cytiva) in buffer containing 20 mM HEPES pH 7.5, 150 mM NaCl, 10 %v/v glycerol and 2 mM DTT.
(§8) The ORP domains of human ORP1(534-950) in pET24b(+) and ORP2(49-480) in the pET24b(+) vector including an N-terminal His6-Tag were expressed in E. coli BL21(DE3) in TB medium for approximately 16 h at 18 °C after induction with 0.1 mM IPTG. Cells were collected at 3500 × g for 15 minutes and lysed by sonification in buffer containing 10 mM Tris-HCl pH 8, 300 mM NaCl, 5 % glycerol, 2 mM DTT, 0.1 % Triton X-100 and EDTA-free protease inhibitor cocktail (Sigma-Aldrich). The cleared […]

[2] = target: T2, Aster-A (Homo sapiens, UniProt Q96CP6); test: Fluorescence polarisation (FP) competition with NBD-cholesterol, Aster-A; type: binding; details: for inhibition at 10 µM: single dose; for IC50: mean of three experiments run in technical duplicates
T2 construct: Aster-A(359-547); GST (PreScission-cleavable) (N, cleaved yes); made in house; host or cells: E. coli OverExpress C41
T2 sequence (Q96CP6 359-547): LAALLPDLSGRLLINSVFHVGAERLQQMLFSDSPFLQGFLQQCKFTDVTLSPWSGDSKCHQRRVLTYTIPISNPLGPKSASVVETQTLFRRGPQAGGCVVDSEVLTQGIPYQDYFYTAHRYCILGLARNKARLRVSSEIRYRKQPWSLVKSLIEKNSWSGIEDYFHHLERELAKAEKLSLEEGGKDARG
Text: as §1, §2, §3, §4, §5, §6, §7, §8

Compound | inhibition at 10 µM [1] [%] | inhibition at 10 µM [2] [%] | IC50 [2] [µM] | IC50 [1] [µM] | Activity against Aster-A (in words) ([2]; FP)
Cc1ccc2[nH]c3c(c(=O)c2c1)C[C@@H]1C[C@H](O)CC[C@]31C [Compound 12] | -6.7 | -1 |  |  | 
Cc1ccc2c(c1)[C@]1(O)CC[C@@H]3C[C@H](O)CC[C@]3(C)C1=N2 [Compound 14a] | 65 | 3 |  |  | 
COc1ccc2c(c1)[C@]1(O)CC[C@@H]3C[C@H](O)CC[C@]3(C)C1=N2 [Compound 14b] | 0 | 8 |  |  | 
Cc1cc(C)c2c(c1)N=C1[C@@]2(O)CC[C@@H]2C[C@H](O)CC[C@]12C [Compound 14c] | 0 | 2 |  |  | 
C[C@]12CC[C@@H]3C[C@H]1CC[C@@]21C(=Nc2ccccc21)O3 [Compound 15a] | 10 | 43 | 7.17 |  | 
CC12CCC3CC1CCC21C(=Nc2ccc(Cl)cc21)O3 (centres unmarked) [Compound 15c] | 40 | 50 | 4.59 |  | 
C[C@]12CC[C@@H]3C[C@H]1CC[C@@]21C(=Nc2ccc(F)cc21)O3 [Compound 15d] | 11.7 | 25 | 12.5 |  | 
Cc1ccc2c(c1)[C@@]13CC[C@@H]4C[C@@H](CC[C@@]41C)OC3=N2 [Compound 15e] | 8.3 | 45 | 6.03 |  | 
COc1ccc2c(c1)[C@@]13CC[C@@H]4C[C@@H](CC[C@@]41C)OC3=N2 [Compound 15f] | 33.3 | 51 | 5.06 |  | 
C[C@]12CC[C@@H]3C[C@H]1CC[C@@]21C(=Nc2ccc(C(F)(F)F)cc21)O3 [Compound 15g] | 73.3 | 79 | 1.6 | 13 | 
CC12CCC3CC1CCC21C(=Nc2c(Br)cc(C(F)(F)F)cc21)O3 (centres unmarked) [Compound 15h] | 68.3 | 2 | > 80 | > 80 | inactive against Aster-A
C[C@]12CC[C@@H]3C[C@H]1CC[C@@]21C(=Nc2c(F)cc(Cl)cc21)O3 [Compound 15i] | 40 | 46 | 3.63 |  | 
CC12CCC3CC1CCC21C(=Nc2ccc(NCc4ccccc4)cc21)O3 (centres unmarked) [Compound 19b] | 66.7 | 4 | 13.4 | 21.8 | 
CCCCCNc1ccc2c(c1)[C@@]13CC[C@@H]4C[C@@H](CC[C@@]41C)OC3=N2 [Compound 19c] | 47.5 | 59 | 5.03 | > 80 | 
CCCCN(C)c1ccc2c(c1)[C@@]13CC[C@@H]4C[C@@H](CC[C@@]41C)OC3=N2 [Compound 19d] | 93.3 | 60 | 3.89 | 6.26 | 
CC(C)(C)OC(=O)N1CCN(c2ccc3c(c2)C24CCC5CC(CCC52C)OC4=N3)CC1 (centres unmarked) [Compound 19e] | 41.7 | 94 | 1.25 |  | 

From publication PMC11758220, “Identification of a Privileged Scaffold for Inhibition of Sterol Transport Proteins through the Synthesis and Ring Distortion of Diverse, Pseudo-Natural Products” (ACS Central Science, 2025)
